Experimental data as given in patent publication EP1108710A1, “GUAIACOXYPROPANOLAMINES WITH ALPHA/BETA-ADRENERGIC BLOCKING ACTIVITY” (Cheng, Ing-Jun, priority 1998, dated 2000).

Key:
β2-adrenoceptor = target: T1, β2-adrenoceptor (Cavia porcellus, UniProt Q8K4Z4); assay: β-adrenoceptor blocking action on isolated trachea contracted with carbachol (L-isoproterenol relaxation); set-up: species or system guinea pig
T1 construct: a portion of tracheal approximately 4 cm long was removed; from tissue; host or cells: isolated guinea pig trachea (reserpine-pretreated animals)
T1 sequence (Q8K4Z4 whole entry): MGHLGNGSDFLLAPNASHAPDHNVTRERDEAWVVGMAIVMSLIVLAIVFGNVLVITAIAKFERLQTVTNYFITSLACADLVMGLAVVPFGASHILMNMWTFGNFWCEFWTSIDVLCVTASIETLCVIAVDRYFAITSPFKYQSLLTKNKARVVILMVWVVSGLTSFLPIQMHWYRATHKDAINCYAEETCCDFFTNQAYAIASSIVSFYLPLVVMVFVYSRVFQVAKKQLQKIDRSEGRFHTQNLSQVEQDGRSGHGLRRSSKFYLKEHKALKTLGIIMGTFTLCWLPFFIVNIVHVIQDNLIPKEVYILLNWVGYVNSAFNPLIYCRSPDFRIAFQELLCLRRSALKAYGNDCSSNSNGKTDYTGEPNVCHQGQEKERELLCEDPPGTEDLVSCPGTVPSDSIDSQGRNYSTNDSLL
Experimental: Guinea pigs of weight between 300 ∼500 gm were used. […] After the guinea pigs were sacrificed, a slit was made along the neck, and a portion of tracheal approximately 4 cm long was removed. […] The two ends of the tracheal were clamped with frog-heart shaped clamps, one end was fixed at the bottom of tissue bath filled with 20 ml of Kreb's solution, maintained at 37°C, while the other end was connected to a force transducer. Through a COULBOURN AT-High-Speed Videograph, long isometric contractions were recorded. […] Then the tracheal was repeatedly washed with Kreb's solution for 20 minutes and 10^-6 M of carbochol was added to cause contraction in the guinea pig's tracheal. When the contraction reached the maximum, every division of tracheal was used to complete two concentration response curve of L-isoproternol, one of them without administration of test compound and used as control; while the other curve was administered with compound 1 for 30 minutes before concentration response curve was completed. This is the test group. • (b) Calculation of pA2: similar to the calculation method for isolated right atrium experiment.

[1] = system: Wistar rat's isolated; reserpine pretreated right atrium beating rate and left atrium isometric contractions; assay: Direct effect (intrinsic sympathomimetic activity) on reserpine-pretreated isolated atria
Experimental: Pharmacol 311, pp. 205-218 and pp 237-248 (1980). Wistar rats of weight between 200 ∼ 300 gm were used. 18 ∼ 24 hours before the experiment, 5mg/kg of reserpine was injected via abdominal cavity to remove all endogenous catecholamines. Prior experiment, Wistar rats were sacrificed, the heart was immediately removed and placed in Kreb's solution aerated with air mixture and maintained at room temperature. The right and left atria were carefully separated.

[2] = system: guinea pig's isolated; reserpine pretreated tracheal; assay: Direct effect (tracheal relaxation, intrinsic sympathomimetic activity) on reserpine-pretreated isolated trachea, with and without ICI 118,551
Experimental: Pharmacol 311, pp. 205-218 and pp.237-248 (1980). guinea pigs of weight between 350 ∼ 500 gm were used. 18 ∼ 24 hours before the experiment, 5mg/kg of reserpine was injected via abdominal cavity to remove all endogenous catecholamines. Prior experiment, guinea pigs were sacrificed, the tracheal was immediately removed and placed in Kreb's solution aerated with air mixture and maintained at room temperature of 22 ∼ 25°C. […] […] Then the tissue was repeatedly washed with Kreb's solution. After the tissue had been re-equilibrated for 60 minutes, ICI 118, 551 were administed. After treatment for 30 minutes, compound 1 of similar concentration was administered, and the intrinsic sympathomimetic activity of tracheal was observed.

A7r5 cells = assay: Fluorescence determination of intracellular calcium ion (fluo 3-AM, laser cytometer); format: cell-based; settings: 10^-8, 10^-7, and 10^-6M for 5 minutes
Experimental: The intensity of fluo 3-AM was measured by line scanning at 30second interval with an argon laser at […].

[3] = system: Wistar rat's isolated thoracic aorta; assay: Isolated thoracic aorta contraction caused by 75mM KCl; settings: 10^-8M; thoracic aorta contraction caused by 75mM KCl
Experimental: After sacrificing Wistar rat of weight between 300 - 500 gm, the thoracic aorta was immediately removed and placed in cold Kreb's solution. The fatty connecting tissue surrounding the vessel wall was removed and the thoracic aorta was cut into rings of length 5 mm. The two ends of each ring was pieced and fixed with "Z" shaped platinum wires. […] When the results had been recorded for at least 35 minutes, the aorta was repeatedly rinsed with normal Kreb's solution. […] 30 minutes later, 75mM KCl was added again to induce vasoconstriction.

β-adrenoreceptor (β1) [4] = target: T2, β-adrenoreceptor (β1) (Rattus norvegicus, UniProt P18090); assay: β-adrenoceptor blocking action on isolated spontaneously beating right atrium (L-isoproterenol-induced heart rate increase, Schild plot); set-up: species or system Wistar rat
T2 construct: The right and left atria were then separated; from tissue; host or cells: isolated rat right and left atria
T2 sequence (P18090 whole entry): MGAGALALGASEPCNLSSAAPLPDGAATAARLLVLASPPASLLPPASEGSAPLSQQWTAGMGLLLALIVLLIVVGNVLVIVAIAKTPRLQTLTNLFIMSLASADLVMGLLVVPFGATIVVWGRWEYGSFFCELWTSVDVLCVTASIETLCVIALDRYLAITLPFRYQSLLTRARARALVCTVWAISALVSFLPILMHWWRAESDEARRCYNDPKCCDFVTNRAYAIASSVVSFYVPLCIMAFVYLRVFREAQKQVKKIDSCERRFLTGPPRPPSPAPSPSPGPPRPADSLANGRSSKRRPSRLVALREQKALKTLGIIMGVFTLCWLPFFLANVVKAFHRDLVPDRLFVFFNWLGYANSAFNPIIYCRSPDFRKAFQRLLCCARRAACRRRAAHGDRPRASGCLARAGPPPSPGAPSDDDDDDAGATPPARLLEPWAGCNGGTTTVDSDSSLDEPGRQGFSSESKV
Experimental: The right and left atria were then separated. The spontaneously-beating right atria was clipped on both end by heart shaped clips, where one end was fixed at the bottom of 10ml of tissue bath made of physiological saline solution, and temperature maintained at 37°C. The other end of the atria was connected to a force transducer, and isometric contractions and beating rate of the right atria were recorded by COULBOURN AT-High-Speed VideoFigure. […] Cumulative administration interval was when the previous concentration reached its greatest effect, the next concentration would be immediately given.

lung β 2-receptor = target: T3, lung β 2-receptor (Rattus norvegicus, UniProt P10608); assay: [3H]CGP-12177 receptor binding on lung membranes; set-up: species or system Wistar rat
T3 construct: The heart and lung of rat were removed and placed in cold Tris buffer; from tissue; host or cells: rat lung membranes
T3 sequence (P10608 whole entry): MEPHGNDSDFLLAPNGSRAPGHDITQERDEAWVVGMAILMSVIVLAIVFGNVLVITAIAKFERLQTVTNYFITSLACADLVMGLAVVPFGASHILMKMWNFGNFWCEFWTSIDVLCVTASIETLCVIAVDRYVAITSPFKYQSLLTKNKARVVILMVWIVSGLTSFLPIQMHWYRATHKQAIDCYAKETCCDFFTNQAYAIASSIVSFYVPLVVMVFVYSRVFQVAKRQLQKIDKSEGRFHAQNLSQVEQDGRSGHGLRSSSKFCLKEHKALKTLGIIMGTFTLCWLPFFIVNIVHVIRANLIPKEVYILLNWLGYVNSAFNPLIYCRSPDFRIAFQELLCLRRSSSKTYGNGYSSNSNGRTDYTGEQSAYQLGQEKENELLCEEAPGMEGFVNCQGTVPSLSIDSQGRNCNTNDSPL
Experimental: (§1) The heart and lung of rat were removed and placed in cold Tris buffer. Then the atria and lung were separated and weighed, before placing in cold Tris buffer with volume 20X their weights. […] The centrifugal fluid was again centrifuged at 10,000 gm for 12 minutes. The second centrifugal fluid was centrifuged for the third time at 29,000 gm for 15 minutes. The pellet finally obtained was re-suspended in Tris buffer as little as possible. […] Finally, the protein concentration was diluted with Tris buffer to maintain 200∼250 µ g protein per 100 µ l.
(§2) After reaction, 1ml of cold Tris buffer was added to terminate the binding reaction.

normotensive rats = assay: Heart rate and blood pressure in living (anaesthetized) rat, intravenous injection; format: in vivo, Wistar rats
Text: Male Wistar rats, weighing 200 ∼ 300g were abdominal anaesthetized with pentobarbital sodium. Tracheal was cannulated to maintain normal respiration. Polyethylene tube was inserted into the left femoral vein to facilitate drug administration. A 3-way stopcock was used, with one end connected to a syringe for drug injection, while the other end was connected to the syringe filled with physiological saline. The latter was used to prevent residual drugs in the polyethylene tube after injection, which would affect experimental accuracy.
The right femoral artery was also inserted with polyethylene, and a 3-way stopcock was used tool, where one end was connected to heparin solution to prevent embolism. The other end was connected to a Disposable Diaphragm Dome, TA1019, and linked to a transducer. Through an amplifier, a recorder recorded the overall and average arterial pressure; heart rate to evaluate the effect of drug on blood pressure and heart rate.

β-adrenoreceptor (β1) [5] = target: T2, β-adrenoreceptor (β1); assay: β-adrenoceptor blocking action on electrically driven isolated left atrium (L-isoproterenol-induced contractility); set-up: species or system Wistar rat
Experimental: The inspontaneously-beating left atrial tissue was obtained from rat's isolated right atrial tissue experiments. […] The contraction rate was 1Hz and the resting tension 0.5 gm. After 60 minutes of equilibration, the following experiments were performed: • (a) Completion of cumulative concentration-response curve: similar to experimental method on isolated right atrium; • (b)Calculation of pA2 value: similar to calculation method on isolated right atrium.

atrial β 1-receptor = target: T4, atrial β 1-receptor (Rattus norvegicus, UniProt P18090); assay: [3H]CGP-12177 receptor binding on atrial membranes; set-up: species or system Wistar rat
T4 construct: The heart and lung of rat were removed and placed in cold Tris buffer; from tissue; host or cells: rat atrial membranes
T4 sequence (P18090 whole entry): as the sequence (P18090 whole entry) above
Experimental: as §1, §2

[6] = system: BayK8644 pretreated thoracic aorta; assay: Isolated thoracic aorta pretreated with BayK8644, then contracted with concentrated potassium solution; set-up: species or system Wistar rat; settings: 0.1 µ M of BayK8644 for 10 minutes; 10^-8 to 10^-5 M compound
Experimental: The effect of compound 1 on the thoracic aorta contraction caused by 75mM KCl. The Wistar rat's isolated thoracic aorta was contraction induced by 75mM of concentrated Potassium solution. […] Furthermore, the contraction effects of 10^-8M of compound 1- 9 were indicated on Table 1. (b) The effect of compound 1 on BayK8644 pretreated thoracic aorta: 0.1 µ M of BayK8644 was first added into the tissue trough. 10 minutes later, 75mM of concentrated Potassium solution was added to induce thoracic aorta contraction. When vasoconstriction had reached stability, different concentrations of (10^-8, 10^-7, 10^-6, and 10^-5M) compound 1 were separately added.

COC(=O)C1=C(C)NC(C)=C(C(=O)OC)C1c1ccc(OCC(O)CNC(C)(C)C)c(OC)c1 (stereo not shown) [compound 1]
pA2 value (β2-adrenoceptor; guinea pig's isolated tracheal, against L-isoproterenol): 7.09±0.54
blocking of tracheal relaxation effect of L-isoproterenol (β2-adrenoceptor; trachea contracted with 10^-6 M CARBACHOL): could competitively block the effect of L-isoproterenol
direct effect on right atrium beating rate and left atrium isometric contractions ([1]; cumulative administration, reserpine pretreated): could not increase the beating rate and isometric contractions
concentration with blocking effect on beating rate and isometric contractions ([1]; reserpine pretreated atria): ≥ 10^-5 M
tracheal relaxation effect after pretreatment with ICI 118, 551 [2]: concentration-dependently shifting parallel to the right
tracheal relaxation effect ([2]; cumulative administration 10^-10∼3x10^-6 M, reserpine pretreated): dose-dependant tracheal relaxation effect
calcium ion influx effect of KCl ([Ca^2+]i) (A7r5 cells; 50mM KCl): significantly blocked
calcium ion influx effect of BayK8644 ([Ca^2+]i) (A7r5 cells; 10 µ M BayK8644): significantly blocked
Aorta Relaxation [3]: 30± 3%
selectivity ratio of β1 type adrenoceptor (effect on right atrium relative to tracheal) (β-adrenoreceptor (β1) [4]; from the average pA2 difference between right atrium and tracheal): 1.32 X
pA2 value (β-adrenoreceptor (β1) [4]; isolated right atrium, against L-isoproterenol): 7.21±0.32
blocking of heart rate increment effect of L-isoproterenol (β-adrenoreceptor (β1) [4]; isolated right atrium, three concentrations of compound): could competitively block the heart rate increment effect of L-isoproterenol
Ki (lung β 2-receptor): 631 nM
effect on blood pressure and heart rate (normotensive rats; intravenous injection of 0.5 mg/kg): a decrease in heart rate was shown
effect on blood pressure and heart rate (normotensive rats; intravenous injection, 0.1, 0.25, 0.5, 1.0, 2.0 mg/kg, normotensive rats): continuous dose-dependent blood pressure lowering effect without increasing heart rate
duration of blood pressure lowering effect (normotensive rats; intravenous injection, normotensive rats): approximately 1 hour
Lowering of Blood Pressure (normotensive rats; lmg/kg, via femoral vein, rats): 70± 3 mm Hg
Reduction of Heart Rate (normotensive rats; lmg/kg, via femoral vein, rats): 30± 2 beats/min
blocking of heart contractility increment effect of L-isoproterenol (β-adrenoreceptor (β1) [5]; isolated left atrium, three concentrations of compound): could competitively block the heart contractility increment effect of L-isoproterenol
pA2 value (β-adrenoreceptor (β1) [5]; left atrium contractility, against L-isoproterenol): 6.91±0.26
Ki (atrial β 1-receptor): 245 nM
effect of BayK8644 pre-treatment on the compound's vascular effect [6]: pre-treatment with BayK8644 would affect vasoconstriction function
